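Following 48 hours of exposure in 96-well plates, responses at five concentrations were used to interpolate endpoints linearly. GI50 is the concentration that inhibits growth by half. TGI: total growth inhibition.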
Assays:
Assay in all cases: NCI-60 cell line screen, 48 h
[1] = system: 786-0 renal
[2] = system: A498 renal
[3] = system: A549 NSCLC
[4] = system: ACHN renal
[5] = system: BT-549 breast
[6] = system: CAKI-1 renal
[7] = system: CCRF-CEM leukemia
[8] = system: COLO 205 colon
[9] = system: DU-145 prostate
[10] = system: EKVX NSCLC
[11] = system: HCC-2998 colon
[12] = system: HCT-116 colon
[13] = system: HCT-15 colon
[14] = system: HL-60(TB) leukemia
[15] = system: HOP-62 NSCLC
[16] = system: HOP-92 NSCLC
[17] = system: HS 578T breast
[18] = system: HT29 colon
[19] = system: IGROV1 ovarian
[20] = system: K-562 leukemia
[21] = system: KM12 colon
[22] = system: LOX IMVI melanoma
[23] = system: M14 melanoma
[24] = system: MALME-3M melanoma
[25] = system: MCF7 breast
[26] = system: MDA-MB-231 breast
[27] = system: MDA-MB-435
[28] = system: MDA-MB-468 breast
[29] = system: MOLT-4 leukemia
[30] = system: NCI-H226 lung
[31] = system: NCI-H23 lung
[32] = system: NCI-H460 lung
[33] = system: NCI-H522 lung
[34] = system: NCI/ADR-RES ovarian
[35] = system: OVCAR-3 ovarian
[36] = system: OVCAR-4 ovarian
[37] = system: OVCAR-5 ovarian
[38] = system: OVCAR-8 ovarian
[39] = system: PC-3 prostate
[40] = system: RPMI-8226 leukemia
[41] = system: RXF 393 renal
[42] = system: SF-268 CNS
[43] = system: SF-295 CNS
[44] = system: SF-539 CNS
[45] = system: SK-MEL-2 melanoma
[46] = system: SK-MEL-28 melanoma
[47] = system: SK-MEL-5 melanoma
[48] = system: SK-OV-3 ovarian
[49] = system: SN12C renal
[50] = system: SNB-19 CNS
[51] = system: SNB-75 CNS
[52] = system: SR leukemia
[53] = system: SW-620 colon
[54] = system: T-47D breast
[55] = system: TK-10 renal
[56] = system: U251 CNS
[57] = system: UACC-257 melanoma
[58] = system: UACC-62 melanoma
[59] = system: UO-31 renal

SMILES: CCOC(=O)c1ccc(NC(=O)CSC(CC(=O)c2sc(Nc3ccccn3)nc2C)c2ccccc2F)cc1 (stereo not drawn)
- GI50 [1]: 24.8 µM
- TGI [1]: > 100 µM
- GI50 [2]: 69.2 µM
- TGI [2]: > 100 µM
- GI50 [3]: 75.7 µM
- TGI [3]: > 100 µM
- GI50 [4]: 45.6 µM
- TGI [4]: > 100 µM
- GI50 [5]: 14.7 µM
- TGI [5]: 81.5 µM
- GI50 [6]: 11.5 µM
- TGI [6]: > 100 µM
- GI50 [7]: 18.6 µM
- TGI [7]: > 100 µM
- GI50 [8]: > 100 µM
- TGI [8]: > 100 µM
- GI50 [9]: 67.2 µM
- TGI [9]: > 100 µM
- GI50 [10]: 19 µM
- TGI [10]: > 100 µM
- GI50 [11]: 23.1 µM
- TGI [11]: > 100 µM
- GI50 [12]: 23 µM
- TGI [12]: > 100 µM
- GI50 [13]: 25.8 µM
- TGI [13]: > 100 µM
- GI50 [14]: 21.4 µM
- TGI [14]: > 100 µM
- GI50 [15]: 37.5 µM
- TGI [15]: > 100 µM
- GI50 [16]: 12.5 µM
- TGI [16]: > 100 µM
- GI50 [17]: 14.9 µM
- TGI [17]: 94.8 µM
- GI50 [18]: 58.3 µM
- TGI [18]: > 100 µM
- GI50 [19]: 12.1 µM
- TGI [19]: 83.3 µM
- GI50 [20]: 30.4 µM
- TGI [20]: > 100 µM
- GI50 [21]: 55.6 µM
- TGI [21]: > 100 µM
- GI50 [22]: 0.312 µM
- TGI [22]: > 100 µM
- GI50 [23]: 19.4 µM
- TGI [23]: > 100 µM
- GI50 [24]: 25.4 µM
- TGI [24]: > 100 µM
- GI50 [25]: 15.4 µM
- TGI [25]: > 100 µM
- GI50 [26]: 19.3 µM
- TGI [26]: > 100 µM
- GI50 [27]: 26.3 µM
- TGI [27]: > 100 µM
- GI50 [28]: 4.24 µM
- TGI [28]: 44.3 µM
- GI50 [29]: 32.2 µM
- TGI [29]: > 100 µM
- GI50 [30]: 2.52 µM
- TGI [30]: 85.9 µM
- GI50 [31]: 22.7 µM
- TGI [31]: > 100 µM
- GI50 [32]: 31.2 µM
- TGI [32]: > 100 µM
- GI50 [33]: 21.6 µM
- TGI [33]: > 100 µM
- GI50 [34]: 24.1 µM
- TGI [34]: > 100 µM
- GI50 [35]: 31.7 µM
- TGI [35]: > 100 µM
- GI50 [36]: 66.1 µM
- TGI [36]: > 100 µM
- GI50 [37]: 74.4 µM
- TGI [37]: > 100 µM
- GI50 [38]: 53.6 µM
- TGI [38]: > 100 µM
- GI50 [39]: 23.8 µM
- TGI [39]: > 100 µM
- GI50 [40]: 8.29 µM
- TGI [40]: > 100 µM
- GI50 [41]: 2.59 µM
- TGI [41]: 23.5 µM
- GI50 [42]: 43.1 µM
- TGI [42]: > 100 µM
- GI50 [43]: 32.2 µM
- TGI [43]: > 100 µM
- GI50 [44]: 32.5 µM
- TGI [44]: > 100 µM
- GI50 [45]: 44.9 µM
- TGI [45]: > 100 µM
- GI50 [46]: 38.7 µM
- TGI [46]: > 100 µM
- GI50 [47]: 18.6 µM
- TGI [47]: 82 µM
- GI50 [48]: 26 µM
- TGI [48]: > 100 µM
- GI50 [49]: 28 µM
- TGI [49]: > 100 µM
- GI50 [50]: 36.9 µM
- TGI [50]: > 100 µM
- GI50 [51]: 3.59 µM
- TGI [51]: 48.8 µM
- GI50 [52]: 24.1 µM
- TGI [52]: > 100 µM
- GI50 [53]: 75.3 µM
- TGI [53]: > 100 µM
- GI50 [54]: 18 µM
- TGI [54]: > 100 µM
- GI50 [55]: 82.3 µM
- TGI [55]: > 100 µM
- GI50 [56]: 47.8 µM
- TGI [56]: > 100 µM
- GI50 [57]: 38.4 µM
- TGI [57]: > 100 µM
- GI50 [58]: 16.1 µM
- TGI [58]: > 100 µM
- GI50 [59]: 3.19 µM
- TGI [59]: > 100 µM

From PubChem BioAssay (NCI)
